Results as given in US12552788B2 (priority 2020, dated 2026).

Test system: IFN β-production
Conditions: soluble, unformulated form
Experimental: (FIG. 3A) Bioluminescence images of luciferase reporter mice (IFβ+/Δβ-luc); images taken 4, 24 and 48 h post footpad injection of IMDQ-PEG-CHOL, IMDQ-PEG and native IMDQ.
In vivo immune activation imaging. Luciferase reporter mice (IFNβ+/Δβ-luc) with a BALB/c background, aged 7-9 weeks, were housed in individual ventilated cages and given ad libitum access to food and water. 20 mL of IMDQ-PEG-CHOL, IMDQ-PEG or IMDQ were injected subcutaneously in the footpad (n=3) at an equivalent INDQ dose of 2 mg. For in vivo imaging at the given time points, mice were injected subcutaneously with 200 μL D-luciferin and in vivo luminescence imaging was recorded 12 min later using the IVIS Lumina II imaging system. Local (DLN and DLN+foot pad) luminescence and full-body luminescence were quantified using the Living Image 4.4 software.

CCCCc1nc2c(N)nc3ccccc3c2n1Cc1ccc(CN)cc1 [IMDQ, 1-(4-(aminomethyl)benzyl)-2-butyl-1H-imidazo[4,5-c]quinolin-4-amine]
entry into systemic circulation upon local administration: rapidly enters systemic circulation
